Like-named read-outs stand apart in the source and are kept apart here.
Columns and labels:
[1] = target: T1, porcine pancreatic elastase (PPE) (Sus scrofa, UniProt P00772); assay: Specificity assay, porcine pancreatic elastase; format: biochemical; settings: 2 h enzyme-inhibitor pre-incubation
T1 construct: purchased Sigma
Protocol: (§1) The specificities of compounds of the present disclosure were determined against a variety of serine proteases: human neutrophil elastase (HNE), porcine pancreatic elastase (PPE) and human pancreatic chymotrypsin and one cysteine protease: human liver cathepsin B. In all cases a 96-well plate format protocol using colorimetric p-nitroaniline (pNA) substrate specific for each enzyme was used as described previously (PCT Patent Application No. WO 00/09543) with some modifications to the serine protease assays. All enzymes were purchased from Sigma while the substrates were from Bachem.
(§2) Each assay included a 2 h enzyme-inhibitor pre-incubation at room temperature followed by addition of substrate and hydrolysis to ˜30% conversion as measured on a Spectramax Pro microplate reader. Compound concentrations varied from 100 to 0.4 μM depending on their potency.
50 mM Tris(hydroxymethyl)aminomethane hydrochloride (Tris-HCl) pH 8, 0.5 M Sodium Sulfate (Na2SO4), 50 mM NaCl, 0.1 mM EDTA, 3% DMSO, 0.01% Tween-20 with:
133 μM succ-AAA-pNA and 20 nM HNE or 8 nM PPE; 100 μM succ-AAPF-pNA and […] Chymotrypsin.
(§3) The percentage of inhibition was calculated using the formula: [1−((UVinh−UVblank)/(UVctl−UVblank))]×100
(§4) A non-linear curve fit was applied to the inhibition-concentration data, and the 50% effective concentration (IC50) was calculated by the use of Excel Xl-fit software.

[2] = target: T2, HCV NS3/4A protease complex, BMS strain (UniProt P27958, species not given/STRAIN_BMS); assay: FRET peptide assay to monitor HCV NS3/4A proteolytic activity (BMS strain); format: biochemical, HCV genotype 1a
T2 construct: given for H77 and J4L6S, not expressly for BMS; fused on or other part: three-lysine solubilising tail at the end of NS4A (given for the H77 and J4L6S constructs)
T2 sequence (P27958 1027-1657, change not shown, one chain of several): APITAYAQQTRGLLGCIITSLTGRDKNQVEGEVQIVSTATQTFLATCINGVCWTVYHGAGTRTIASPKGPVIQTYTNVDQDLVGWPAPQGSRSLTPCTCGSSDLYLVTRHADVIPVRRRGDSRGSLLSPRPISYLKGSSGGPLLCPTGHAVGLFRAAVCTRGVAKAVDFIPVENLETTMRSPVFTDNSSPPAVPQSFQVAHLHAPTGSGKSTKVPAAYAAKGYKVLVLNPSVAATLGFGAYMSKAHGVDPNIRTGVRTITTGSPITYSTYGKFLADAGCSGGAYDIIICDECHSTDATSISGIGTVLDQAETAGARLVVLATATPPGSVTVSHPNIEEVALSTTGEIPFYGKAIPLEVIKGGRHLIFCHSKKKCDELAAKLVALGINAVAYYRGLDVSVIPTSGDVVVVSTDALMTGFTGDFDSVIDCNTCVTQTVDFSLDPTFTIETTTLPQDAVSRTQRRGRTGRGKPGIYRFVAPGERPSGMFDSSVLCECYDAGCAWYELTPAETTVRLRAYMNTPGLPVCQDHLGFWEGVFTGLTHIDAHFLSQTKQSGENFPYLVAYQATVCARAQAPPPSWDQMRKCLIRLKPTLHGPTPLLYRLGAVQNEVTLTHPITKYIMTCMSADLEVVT
Description: HCV NS3 protease complexes, derived from the BMS strain, H77 strain or J4L6S strain, were generated, as described below. These purified recombinant proteins were generated for use in a homogeneous assay (see below) to provide an indication of how effective compounds of the present disclosure would be in inhibiting HCV NS3 proteolytic activity.
Serum from an HCV-infected patient was obtained from Dr. T. Wright, San Francisco Hospital. An engineered full-length cDNA (compliment deoxyribonucleic acid) template of the HCV genome (BMS strain) was constructed from DNA fragments obtained by reverse transcription-PCR(RT-PCR) of serum RNA (ribonucleic acid) and using primers selected on the basis of homology between other genotype 1a strains. From the determination of the entire genome sequence, a genotype 1a was assigned to the HCV isolate according to the classification of Simmonds et al. (See P Simmonds, K A Rose, S Graham, S W Chan, F McOmish, B C Dow, E A Follett, P L Yap and H Marsden, J. Clin. Microbiol., 31(6), 1493-1503 (1993)). […] The infectious clones, H77 (1a genotype) and J4L6S (1b genotype) were obtained from R. Purcell (NIH) and the sequences are published in Genbank (AAB67036, see Yanagi, M., Purcell, R. H., Emerson, S. U. and Bukh, J. Proc. Natl. Acad. Sci. U.S.A. 94(16), 8738-8743 (1997); AF054247, see Yanagi, M., St Claire, M., Shapiro, M., Emerson, S. U., Purcell, R. H. and Bukh, J, Virology 244 (1), 161-172. (1998)).
NS3/4A protease complex-containing fractions were pooled and loaded on a desalting column Superdex-S200 pre-equilibrated with buffer D (25 mM HEPES, pH 7.5, 20% glycerol, 300 mM NaCl, 0.2% Triton X-100, 10 mM βME). Sample was loaded at a flow rate of 1 mL/min. NS3/4A protease complex-containing fractions were pooled and concentrated to approximately 0.5 mg/ml. The purity of the NS3/4A protease complexes, derived from the BMS, H77 and J4L6S strains, were judged to be greater than 90% by SDS-PAGE and mass spectrometry analyses. The enzyme was stored at −80° C., thawed on ice and diluted prior to use in assay buffer.
The purpose of this in vitro assay was to measure the inhibition of HCV NS3 protease complexes, derived from the BMS strain, H77 strain or J4L6S strain, as described above, by compounds of the present disclosure. This assay provides an indication of how effective compounds of the present disclosure would be in inhibiting HCV NS3 proteolytic activity.
In order to monitor HCV NS3/4A protease activity, an NS3/4A peptide substrate was used. The substrate was RET S1 (Resonance Energy Transfer Depsipeptide Substrate; AnaSpec, Inc. cat #22991)(FRET peptide), described by Taliani et al. in Anal. Biochem. 240(2):60-67 (1996). The sequence of this peptide is loosely based on the NS4A/NS4B natural cleavage site for the HCV NS3 protease except there is an ester linkage rather than an amide bond at the cleavage site. The peptide also contains a fluorescence donor, EDANS, near one end of the peptide and an acceptor, DABCYL, near the other end. The fluorescence of the peptide is quenched by […] resonance energy transfer (RET) between the donor and the acceptor, but as the NS3 protease cleaves the peptide the products are released from RET quenching and the fluorescence of the donor becomes apparent.
The peptide substrate was incubated with one of the three recombinant NS3/4A protease complexes, in the absence or presence of a compound of the present disclosure. The inhibitory effects of a compound were determined by monitoring the formation of fluorescent reaction product in real time using a Cytofluor Series 4000.
Assay buffer: 50 mM HEPES, pH 7.5; 0.15 M NaCl; 0.1% Triton; 15% Glycerol; 10 mM βME. Substrate: 2 μM final concentration (from a 2 mM stock solution in DMSO stored at −20° C.). HCV NS3/4A protease type 1a (1b), 2-3 nM final concentration (from a 5 μM stock solution in 25 mM HEPES, pH 7.5, 20% glycerol, 300 mM NaCl, 0.2% Triton-X100, 10 mM βME). […]

human liver cathepsin B = target: T3, human liver cathepsin B (Homo sapiens, UniProt P07858); assay: Specificity assay, cathepsin B; format: biochemical; settings: 2 h enzyme-inhibitor pre-incubation
T3 construct: purchased Sigma; host or cells: human liver (by name)
Protocol: as §1, §2
100 mM NaHPO4 (Sodium Hydrogen Phosphate) pH 6, 0.1 mM EDTA, 3% DMSO, 1 mM TCEP (Tris(2-carboxyethyl)phosphine hydrochloride), 0.01% Tween-20, 30 μM Z-FR-pNA and 5 nM Cathepsin B (enzyme stock activated in buffer containing 20 mM TCEP before use).
as §3, §4

T1 sequence (P00772 27-266): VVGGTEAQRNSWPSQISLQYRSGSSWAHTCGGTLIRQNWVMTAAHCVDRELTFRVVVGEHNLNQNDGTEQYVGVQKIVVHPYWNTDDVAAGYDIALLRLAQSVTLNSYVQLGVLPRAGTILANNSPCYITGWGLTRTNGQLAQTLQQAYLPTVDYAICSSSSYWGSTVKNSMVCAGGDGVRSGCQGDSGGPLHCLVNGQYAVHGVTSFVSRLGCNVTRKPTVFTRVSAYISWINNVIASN

C=C[C@@H]1C[C@]1(NC(=O)[C@@H]1C[C@@H](OC(=O)c2ccccc2)CN1C(=O)[C@@H](NC(=O)OC(C)(C)C)C(C)(C)C)C(=O)NS(=O)(=O)C1CC1 [Compound 1]
IC50 [1]: > 200000 nM
IC50 ([2]; read-out: Activity Range (IC50), NS3/4A BMS strain): 1 to 50 nM
IC50 ([2]; read-out: IC50 against the NS3/4A BMS strain in the enzyme assay, BMS strain): 13 nM
IC50 (human liver cathepsin B): > 50000 nM

— patent US7935670B2, “Hepatitis C virus inhibitors” (Bristol-Myers Squibb Company, priority 2006, dated 2011)
